Assay [1] concerns the target Neprilysin (Canis familiaris). Description: Inhibition of dog NEP.
The nature of assay [2]: Inhibition of dog ACE.

For the compound `CCCC(CC1(c2nnc(Cc3ccccc3)o2)CCCC1)C(=O)O` (stereo not drawn) [2-((1-(5-benzyl-1,3,4-oxadiazol-2-yl)cyclopentyl)methyl)pentanoic acid], the IC50 (commonly the midpoint of a concentration-inhibition curve) in assay [1] was 3100 nM; in assay [2] it was above 3000 nM.

In the case of `CCCC(CC1(C(=O)NC2(CO)CCCC2)CCCC1)C(=O)O` (stereo not drawn) [2-((1-((1-(hydroxymethyl)cyclopentyl)carbamoyl)cyclopentyl)methyl)pentanoic acid], the concentration for half-maximal inhibition (IC50) in assay [1] was 1710 nM; in assay [2], above 3000 nM.

Consider `CCCC(CC1(C(=O)Nc2ccc(=O)n(Cc3ccccc3)c2)CCCC1)C(=O)O` (stereo not drawn) [2-((1-((1-benzyl-6-oxo-1,6-dihydropyridin-3-yl)carbamoyl)cyclopentyl)methyl)pentanoic acid], for which the figures for the IC50 in assay [1] and in assay [2] were 313 nM and above 3000 nM, respectively.

On to `CCCNc1ccnc(NC(=O)C2(CC(CCC)C(=O)O)CCCC2)n1` (stereo not drawn) [2-((1-((4-(propylamino)pyrimidin-2-yl)carbamoyl)cyclopentyl)methyl)pentanoic acid], for which the IC50 in assay [1] is above 2000 nM; in assay [2], above 3000 nM.

Take `CCCC(CC1(C(=O)Nc2cc(Cc3ccccc3)ccn2)CCCC1)C(=O)O` (stereo not drawn) [2-((1-((4-benzylpyridin-2-yl)carbamoyl)cyclopentyl)methyl)pentanoic acid]: the IC50 in assay [1] was 96 nM; in assay [2] it was above 3000 nM.

Take `CCCCc1ccnc(NC(=O)C2(CC(CCC)C(=O)O)CCCC2)c1` (stereo not drawn) [2-((1-((4-butylpyridin-2-yl)carbamoyl)cyclopentyl)methyl)pentanoic acid]: the IC50 was 184 nM in assay [1] and above 3000 nM in assay [2].

For the compound `CCc1nnc(NC(=O)C2(CC(CCc3ccccc3)C(=O)O)CCCC2)s1` (stereo not drawn) [2-((1-((5-ethyl-1,3,4-thiadiazol-2-yl)carbamoyl)cyclopentyl)methyl)-4-phenylbutanoic acid], the IC50 was 46 nM in assay [1] and above 3000 nM in assay [2].

For the compound `CCCC(CC1(C(=O)Nc2nnc(CC(C)C)s2)CCCC1)C(=O)O` (stereo not drawn) [2-((1-((5-isobutyl-1,3,4-thiadiazol-2-yl)carbamoyl)cyclopentyl)methyl)pentanoic acid], the figures for the 50% inhibitory concentration (IC50) in assay [1] and in assay [2] were 124 nM and above 3000 nM, respectively.

`CCCC(CC1(C(=O)N[C@@H]2CCCC[C@@H]2Cc2ccccc2)CCCC1)C(=O)O` (stereo partly drawn) [2-((1-(((1R,2R)-2-benzylcyclohexyl)carbamoyl)cyclopentyl)methyl)pentanoic acid]: the IC50 in assay [1] is 195 nM; in assay [2], above 3000 nM.

For the compound `CCCC(CC1(C(=O)N[C@@H]2CC[C@H](C(N)=O)C2)CCCC1)C(=O)O` (stereo partly drawn) [2-((1-(((1R,3S)-3-carbamoylcyclopentyl)carbamoyl)cyclopentyl)methyl)pentanoic acid], the IC50 in assay [1] was 213 nM; in assay [2], above 3000 nM.

Regarding `CCCC(CC1(C(=O)N[C@@H]2CCN(Cc3ccccc3)C2)CCCC1)C(=O)O` (stereo partly drawn) [2-((1-(((R)-1-benzylpyrrolidin-3-yl)carbamoyl)cyclopentyl)methyl)pentanoic acid], the IC50 was 1060 nM in assay [1] and above 3000 nM in assay [2].

With `CCCC(CC1(C(=O)N[C@H](CO)Cc2ccccc2)CCCC1)C(=O)O` (stereo partly drawn) [2-((1-(((S)-1-hydroxy-3-phenylpropan-2-yl)carbamoyl)cyclopentyl)methyl)pentanoic acid], the results for the IC50 in assay [1] and in assay [2] were 384 nM and above 3000 nM, respectively.

In the case of `CCc1nnc(NC(=O)C2(CCC(=O)O)CCCC2)s1` [3-(1-((5-ethyl-1,3,4-thiadiazol-2-yl)carbamoyl)cyclopentyl)propanoic acid], the IC50 in assay [1] is 237 nM; in assay [2], above 3000 nM.

On to `CCCC(CC1(C(=O)N[C@H]2CC[C@@H](C(N)=O)CC2)CCCC1)C(=O)O` (stereo partly drawn) [cis-2-((1-((4-carbamoylcyclohexyl)carbamoyl)cyclopentyl)methyl)pentanoic acid], for which the values for the IC50 in assay [1] and in assay [2] were 150 nM and above 3000 nM, respectively.
